This test deals with L1210 leukemia ip in BDF1 mice, survival T/C. Nature of the test: NCI In Vivo Anticancer Drug Screen. Data for tumor model L1210 Leukemia (intraperitoneal) in B6D2F1 (BDF1) mice. The following applies: endpoint: mean survival time, higher = longer survival. In outline:
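Mice bearing the transplanted tumor received compound or vehicle. Survival of the treated group was divided by that of the vehicle-treated control group to give the ratio.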

Where [1] appears, read: dose: 100.0 mg/kg/injection, schedule: Q04DX003 (ip), vehicle: saline with Tween-80.
[2] abbreviates: dose: 200.0 mg/kg/injection, schedule: Q04DX003 (ip), vehicle: saline with Tween-80.
The mark [3] stands for this setting: dose: 100.0 mg/kg/injection, schedule: Q01DX001 (ip), vehicle: saline.
Where [4] appears, read: dose: 200.0 mg/kg/injection, schedule: Q01DX001 (ip), vehicle: saline.
Setting [5] is: dose: 100.0 mg/kg/injection, schedule: Q04DX002 (ip), vehicle: Klucel (hydroxypropylcellulose) (HPC).
The mark [6] stands for this setting: dose: 50.0 mg/kg/injection, schedule: Q01DX001 (ip), vehicle: saline.

This is an account of results in PubChem BioAssay AID248 (DTP/NCI, 2004).

Each structure is given as a SMILES string. Where “and” joins values, the source holds several entries; their conditions need not be identical. Equal values may be shown once. Inconclusive results and toxic doses are left out.

Take `O=NN(CCCl)C(=O)C1CCCCC1`: the T/C reads like this: (dose: 4.5 mg/kg/injection, schedule: Q01DX001 (ip), vehicle: carboxymethylcellulose (CMC)) 110 % of control; (dose: 9.0 mg/kg/injection, schedule: Q01DX001 (ip), vehicle: carboxymethylcellulose (CMC)) 112 % of control; (dose: 18.0 mg/kg/injection, schedule: Q01DX001 (ip), vehicle: carboxymethylcellulose (CMC)) 113 % of control; (dose: 26.0 mg/kg/injection, schedule: Q01DX001 (ip), vehicle: carboxymethylcellulose (CMC)) 112 % of control; (dose: 40.0 mg/kg/injection, schedule: Q01DX001 (ip), vehicle: carboxymethylcellulose (CMC)) 108 % of control; (dose: 60.0 mg/kg/injection, schedule: Q01DX001 (ip), vehicle: carboxymethylcellulose (CMC)) 110 % of control. In addition, the T/C is 113 % of control (dose: 93.0 mg/kg/injection, schedule: Q01DX001 (ip), vehicle: carboxymethylcellulose (CMC)) and 116 % of control (dose: 187.0 mg/kg/injection, schedule: Q01DX001 (ip), vehicle: carboxymethylcellulose (CMC)).

Take `O=c1cc(CSCCO)[nH]c(=O)[nH]1`: the T/C by setting is: (dose: 100.0 mg/kg/injection, schedule: Q04DX003 (ip), vehicle: saline) 102 % of control; (dose: 200.0 mg/kg/injection, schedule: Q04DX003 (ip), vehicle: saline) 96 % of control; (dose: 400.0 mg/kg/injection, schedule: Q04DX003 (ip), vehicle: saline) 104 % of control.

In the case of `CC1CN=C(c2ccc(NC(=O)Nc3ccc(C(=O)Nc4ccc(C5=NCC(C)N5)cc4)cc3)cc2)N1` (stereo not given), the T/C by setting is: (dose: 0.23 mg/kg/injection, schedule: Q01DX009 (ip), vehicle: saline) 96 % of control; (dose: 0.94 mg/kg/injection, schedule: Q01DX009 (ip), vehicle: saline) 96 % of control; (dose: 7.5 mg/kg/injection, schedule: Q01DX Z (ip), vehicle: saline) 150 % of control; (dose: 15.0 mg/kg/injection, schedule: Q01DX Z (ip), vehicle: other) 204 % of control; (dose: 15.0 mg/kg/injection, schedule: Q01DX Z (ip), vehicle: saline) 277 % of control; (dose: 15.0 mg/kg/injection, schedule: Q01DX Z (oral), vehicle: saline) 103 % of control. Besides, the T/C was 115 % of control (dose: 30.0 mg/kg/injection, schedule: Q01DX Z (ip), vehicle: other); 103 % of control (dose: 30.0 mg/kg/injection, schedule: Q01DX Z (oral), vehicle: saline); 103 % of control (dose: 60.0 mg/kg/injection, schedule: Q01DX Z (oral), vehicle: saline); 102 % of control (dose: 120.0 mg/kg/injection, schedule: Q01DX Z (oral), vehicle: saline).

Take `O=C1CCCCCCCCC(=O)CCCCCCCC1`: the T/C is 89 % of control under setting [1]; 86 % of control under setting [2]; 100 % of control (dose: 400.0 mg/kg/injection, schedule: Q04DX003 (ip), vehicle: saline with Tween-80).

Consider `Cc1cccc2c(CCC(=O)O)c[nH]c12`, for which the T/C under setting [3] was 100 % of control; the T/C under setting [4] is 94 % of control; the T/C (dose: 400.0 mg/kg/injection, schedule: Q01DX001 (ip), vehicle: saline) is 94 % of control.

As to `CN1C(=O)NC(=O)C1c1ccccc1` (stereo not given), the T/C by setting is: (dose: 100.0 mg/kg/injection, schedule: Q04DX002 (ip), vehicle: saline) 117 % of control; (dose: 200.0 mg/kg/injection, schedule: Q04DX002 (ip), vehicle: saline) 106 % of control; (dose: 400.0 mg/kg/injection, schedule: Q04DX002 (ip), vehicle: saline) 106 % of control.

Turning to `CCCCCCP(=O)(CCCC)CCCC`, the T/C runs as follows: (dose: 25.0 mg/kg/injection, schedule: Q04DX002 (ip), vehicle: Klucel (hydroxypropylcellulose) (HPC)) 94 % of control; (dose: 50.0 mg/kg/injection, schedule: Q04DX002 (ip), vehicle: Klucel (hydroxypropylcellulose) (HPC)) 109 % of control; under setting [5], 103 % of control and 109 % of control.

For the molecule `COc1cc2cncc(CC(=O)c3ccc4c(c3)OCO4)c2cc1OC`, the T/C is, setting by setting: under setting [1], 106 % of control; under setting [2], 88 % of control.

`CCOC(=O)C(C#N)C(C)(C[N+](=O)[O-])C1CC1` (stereo not given): the T/C is 96 % of control (dose: 0.78 mg/kg/injection, schedule: Q04DX003 (ip), vehicle: saline with Tween-80); 101 % of control (dose: 1.56 mg/kg/injection, schedule: Q04DX003 (ip), vehicle: saline with Tween-80); 97 % of control (dose: 3.13 mg/kg/injection, schedule: Q04DX003 (ip), vehicle: saline with Tween-80).

As to `c1ccc2c(c1)[nH]c1c[n+]3c(c[n+]12)[nH]c1ccccc13`, the T/C by setting is: under setting [6], 107 % of control; under setting [3], 98 % of control; under setting [4], 113 % of control.

For the molecule `O=S(=O)(Cc1ccc(Cl)cc1)c1ccccc1-n1cccc1`, the T/C (dose: 100.0 mg/kg/injection, schedule: Q04DX003 (ip), vehicle: Klucel (hydroxypropylcellulose) (HPC)) was 90 % of control; the T/C (dose: 200.0 mg/kg/injection, schedule: Q04DX003 (ip), vehicle: Klucel (hydroxypropylcellulose) (HPC)) was 92 % of control; the T/C (dose: 400.0 mg/kg/injection, schedule: Q04DX003 (ip), vehicle: Klucel (hydroxypropylcellulose) (HPC)) was 100 % of control.

Turning to `Cc1ccc2nc(Cl)cc(=O)n2c1`, the T/C runs as follows: under setting [6], 97 % of control; under setting [3], 97 % of control; under setting [4], 97 % of control.

Turning to `Cc1cc(OC(=O)Nc2cccc(Cl)c2C)ccc1[N+](=O)[O-]`, the T/C is 104 % of control and 111 % of control (dose: 25.0 mg/kg/injection, schedule: Q01DX009 (ip), vehicle: saline with Tween-80); 97 % of control and 103 % of control (dose: 50.0 mg/kg/injection, schedule: Q01DX009 (ip), vehicle: saline with Tween-80); 100 % of control and 107 % of control (dose: 100.0 mg/kg/injection, schedule: Q04DX002 (ip), vehicle: saline with Tween-80); 105 % of control under setting [1]; 89 % of control (dose: 200.0 mg/kg/injection, schedule: Q01DX009 (ip), vehicle: saline with Tween-80); 101 % of control and 104 % of control (dose: 200.0 mg/kg/injection, schedule: Q04DX002 (ip), vehicle: saline with Tween-80). In addition, the T/C under setting [2] was 100 % of control and the T/C (dose: 400.0 mg/kg/injection, schedule: Q04DX002 (ip), vehicle: saline with Tween-80) is 93 % of control.

On to `Cc1ccc(Oc2ccc3c(c2)CN(C)CC3)cc1`, for which the T/C under setting [5] is 97 % of control; the T/C (dose: 200.0 mg/kg/injection, schedule: Q04DX002 (ip), vehicle: Klucel (hydroxypropylcellulose) (HPC)) is 102 % of control; the T/C (dose: 400.0 mg/kg/injection, schedule: Q04DX002 (ip), vehicle: Klucel (hydroxypropylcellulose) (HPC)) is 91 % of control.

On to `O=C(CSSCC(=O)Nc1ccccc1O)Nc1ccccc1O`, for which the T/C was 88 % of control (dose: 100.0 mg/kg/injection, schedule: Q01DX001 (ip), vehicle: other); 93 % of control (dose: 200.0 mg/kg/injection, schedule: Q01DX001 (ip), vehicle: other); 89 % of control (dose: 400.0 mg/kg/injection, schedule: Q01DX001 (ip), vehicle: other).

Regarding `CC(=O)NCCO`, the T/C (dose: 100.0 mg/kg/injection, schedule: Q01DX001 (ip), vehicle: saline with Tween-80) is 100 % of control; the T/C (dose: 200.0 mg/kg/injection, schedule: Q01DX001 (ip), vehicle: saline with Tween-80) was 105 % of control; the T/C (dose: 400.0 mg/kg/injection, schedule: Q01DX001 (ip), vehicle: saline with Tween-80) is 100 % of control.

In the case of `CN1CCC(COC(=O)C(O)(c2ccccc2)c2ccccc2)C1` (stereo not given), the T/C runs as follows: (dose: 25.0 mg/kg/injection, schedule: Q04DX003 (ip), vehicle: saline with Tween-80) 97 % of control; (dose: 50.0 mg/kg/injection, schedule: Q04DX003 (ip), vehicle: saline with Tween-80) 94 % of control; under setting [1], 101 % of control and 87 % of control.

`CC(=O)CC(=O)C(F)(F)F.CC(=O)CC(=O)C(F)(F)F.CC(=O)CC(=O)C(F)(F)F.CC(=O)CC(=O)C(F)(F)F.[Th]`: the T/C is 90 % of control (dose: 100.0 mg/kg/injection, schedule: Q01DX005 (ip), vehicle: gum acacia); 96 % of control (dose: 100.0 mg/kg/injection, schedule: Q04DX002 (ip), vehicle: gum acacia); 93 % of control (dose: 200.0 mg/kg/injection, schedule: Q01DX005 (ip), vehicle: gum acacia); 101 % of control (dose: 200.0 mg/kg/injection, schedule: Q01DX009 (ip), vehicle: gum acacia); 96 % of control (dose: 200.0 mg/kg/injection, schedule: Q04DX002 (ip), vehicle: gum acacia); 90 % of control (dose: 400.0 mg/kg/injection, schedule: Q01DX005 (ip), vehicle: gum acacia). Further, the T/C was 94 % of control (dose: 400.0 mg/kg/injection, schedule: Q01DX009 (ip), vehicle: gum acacia) and 107 % of control (dose: 400.0 mg/kg/injection, schedule: Q04DX002 (ip), vehicle: gum acacia).
